EC50 and Emax data for 25 compounds are collected here from patent publication US8563730B2, “Pyrazole and fused pyrazole glucokinase activators” (Takeda San Diego, Inc., priority 2008, dated 2013).

The experiment deals with T1, GK (glucokinase, residues 12-465) (Homo sapiens, UniProt P35557).
T1 construct: I.D. No. 1 corresponds to residues 12-465 of glucokinase; made in house; host or cells: DH10b-T1r E. coli
T1 sequence (P35557 with tags, fused parts or gaps isoform P35557-2): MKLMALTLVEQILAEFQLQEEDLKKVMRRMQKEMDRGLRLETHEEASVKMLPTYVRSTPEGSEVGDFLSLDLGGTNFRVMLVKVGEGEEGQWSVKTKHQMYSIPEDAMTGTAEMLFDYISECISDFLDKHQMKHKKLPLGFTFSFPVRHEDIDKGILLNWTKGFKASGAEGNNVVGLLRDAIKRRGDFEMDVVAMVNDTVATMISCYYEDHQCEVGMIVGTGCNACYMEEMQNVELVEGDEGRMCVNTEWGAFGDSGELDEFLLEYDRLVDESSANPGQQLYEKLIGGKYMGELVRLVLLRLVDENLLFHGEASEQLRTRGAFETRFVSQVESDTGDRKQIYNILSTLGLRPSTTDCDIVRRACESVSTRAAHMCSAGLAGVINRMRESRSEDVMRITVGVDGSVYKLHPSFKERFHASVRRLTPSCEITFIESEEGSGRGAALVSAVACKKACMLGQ
The experiment can be described thus: enzymatic glucokinase activity assay (ATP consumption, KinaseGlo luminescence). It is filed as biochemical. The following applies: 5 μM ATP, 5 mM Glucose, reported as bins; for EC50: Kact = concentration that displays 50% of the maximal increase in GK activity, 60 min, room temperature, read-out: pKact. An outline of the steps: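 E. coli-expressed recombinant GK purified by two anion-exchange steps. Reaction in 25 mM Hepes pH 7.2, 10 mM MgCl2, 1 mM DTT, 5 μM ATP, 5 mM glucose, 2% DMSO, 60 min at room temperature. ATP consumption quantified by KinaseGlo luminescence; pKact and % ACTmax derived by non-linear curve fitting.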

[1] abbreviates: calculated maximal gain in GK enzyme activity at a saturating concentration of the compound, read-out: % ACTmax.
Where [2] appears, read: read-out: % ACTmax, calculated maximal gain in GK enzyme activity at a saturating concentration of the compound.

Several values for one entry are separate records, joined by “and”; a condition that tells them apart may be missing. Equal values may be shown once. Read-outs that look alike come from different tables or passages of the source.

As for `N#Cc1cnc(NC(=O)[C@@H](CC2CCOCC2)n2ncc3c(S(=O)(=O)C4CC4)cccc32)s1` [Compound 137, (R)-N-(5-cyanothiazol-2-yl)-2-(4-(cyclopropylsulfonyl)-1H-indazol-1-yl)-3-(tetrahydro-2H-pyran-4-yl)propanamide], the EC50 was 3.98 to 12.6 µM. Moreover, the Emax under setting [1] is ≤ 90%.
With `Cc1ccc2c(cnn2C(CC2CCOCC2)C(=O)Nc2cnccn2)c1S(=O)(=O)C1CC1` (centres unmarked) [Compound 157, 2-(4-(cyclopropylsulfonyl)-5-methyl-1H-indazol-1-yl)-N-(pyrazin-2-yl)-3-(tetrahydro-2H-pyran-4-yl)propanamide], the EC50 is 0.398 to 1.26 µM. The Emax under setting [1] is ≥ 111%.
`Cn1ccc(NC(=O)[C@@H](CC2CCOCC2)n2ncc3c(S(=O)(=O)C4CC4)cc(C#N)cc32)n1` [Compound 106, (R)-2-(6-cyano-4-(cyclopropylsulfonyl)-1H-indazol-1-yl)-N-(1-methyl-1H-pyrazol-3-yl)-3-(tetrahydro-2H-pyran-4-yl)propanamide]: the EC50 was ≥ 15.8 µM. Further, under setting [1], the Emax is 90 to 100%.
Taken in the same sequence, the figures for `O=C(Nc1cnccn1)C(CC1CCOCC1)n1cc2c(S(=O)(=O)C3CC3)cc(Cl)cc2n1` (centres unmarked) [Compound 168, 2-(6-chloro-4-(cyclopropylsulfonyl)-2H-indazol-2-yl)-N-(pyrazin-2-yl)-3-(tetrahydro-2H-pyran-4-yl)propanamide] were ≥ 15.8 µM and ≤ 90%.
`O=C(Nc1ncc(Cl)s1)C(CC1CCOCC1)n1cc(NS(=O)(=O)C2CC2)cn1` (centres unmarked) [Compound 9, N-(5-chlorothiazol-2-yl)-2-(4-(cyclopropanesulfonamido)-1H-pyrazol-1-yl)-3-(tetrahydro-2H-pyran-4-yl)propanamide]: the EC50 is 3.98 to 12.6 µM. The Emax under setting [2] is ≤ 90%.
Regarding `Cn1ccc(NC(=O)C(CC2CCOCC2)n2ncc3c(S(=O)(=O)C4CC4)cc(OC(F)F)cc32)n1` (centres unmarked) [Compound 12, 2-(4-(cyclopropylsulfonyl)-6-(difluoromethoxy)-1H-indazol-1-yl)-N-(1-methyl-1H-pyrazol-3-yl)-3-(tetrahydro-2H-pyran-4-yl)propanamide], the EC50 is 1.58 to 3.16 µM. For the same compound, the Emax under setting [1] is ≤ 90%.
Take `Cn1ccc(NC(=O)[C@H](CC2CCOCC2)n2ncc3c(S(=O)(=O)C4CC4)cc(C#N)cc32)n1` [Compound 105, (S)-2-(6-cyano-4-(cyclopropylsulfonyl)-1H-indazol-1-yl)-N-(1-methyl-1H-pyrazol-3-yl)-3-(tetrahydro-2H-pyran-4-yl)propanamide]: the EC50 was 0.398 to 1.26 µM and ≤ 0.316 µM. The Emax under setting [1] is ≤ 90%.
Consider `O=C(Nc1ncc(Cl)s1)C(CC1CCOCC1)n1cc(S(=O)(=O)C2CC2)cn1` (centres unmarked) [Compound 4, N-(5-chlorothiazol-2-yl)-2-(4-(cyclopropylsulfonyl)-1H-pyrazol-1-yl)-3-(tetrahydro-2H-pyran-4-yl)propanamide], for which the EC50 was in the range of 3.98 to 12.6 µM. In addition, the Emax under setting [2] is 101 to 105%.
In the case of `N#Cc1cnc(NC(=O)C(CC2CCOCC2)n2ncc3c(S(=O)(=O)C4CC4)cccc32)s1` (centres unmarked) [Compound 125, N-(5-cyanothiazol-2-yl)-2-(4-(cyclopropylsulfonyl)-1H-indazol-1-yl)-3-(tetrahydro-2H-pyran-4-yl)propanamide], the EC50 lay within 1.58 to 3.16 µM. In addition, the Emax under setting [1] was ≥ 111%.
For `NC(=O)c1cnc(NC(=O)C(CC2CCCC2)n2cc(S(=O)(=O)C3CC3)cn2)s1` (centres unmarked) [Compound 57] the same measures were 3.98 to 12.6 µM and 101 to 105%.
As for `CS(=O)(=O)n1ccc(NC(=O)C(CC2CCOCC2)n2ncc3c(S(=O)(=O)C4CC4)cccc32)n1` (centres unmarked) [Compound 146, 2-(4-(cyclopropylsulfonyl)-1H-indazol-1-yl)-N-(1-(methylsulfonyl)-1H-pyrazol-3-yl)-3-(tetrahydro-2H-pyran-4-yl)propanamide], the EC50 was 3.98 to 12.6 µM. In addition, the Emax under setting [1] was ≤ 90%.
Taken in the same sequence, the figures for `O=C(Nc1ncc(Cl)s1)[C@H](CC1CCCC1)n1cc(S(=O)(=O)C2CC2)cn1` [Compound 39, (S)-N-(5-chlorothiazol-2-yl)-3-cyclopentyl-2-(4-(cyclopropylsulfonyl)-1H-pyrazol-1-yl)propanamide] were 1.58 to 3.16 µM and ≥ 111%.
Turning to `NC(=O)c1ccc(NC(=O)[C@H](CC2CCOCC2)n2ncc3c(S(=O)(=O)C4CC4)cccc32)nc1` [Compound 107, (S)-6-(2-(4-(cyclopropylsulfonyl)-1H-indazol-1-yl)-3-(tetrahydro-2H-pyran-4-yl)propanamido)nicotinamide], the EC50 was ≤ 0.316 µM. Moreover, the Emax under setting [2] is ≥ 111%.
As for `COc1ccc2nc(NC(=O)[C@H](CC3CCOCC3)n3cc(S(=O)(=O)C4CC4)cn3)sc2n1` [Compound 26, (S)-2-(4-(cyclopropylsulfonyl)-1H-pyrazol-1-yl)-N-(5-methoxythiazolo[5,4-b]pyridin-2-yl)-3-(tetrahydro-2H-pyran-4-yl)propanamide], the EC50 is ≥ 15.8 µM. For the same compound, the Emax under setting [1] was ≤ 90%.
Consider `Cn1ccc(NC(=O)[C@H](CC2CCOCC2)n2ncc3c(S(=O)(=O)C4CC4)ccnc32)n1` [Compound 98, (S)-2-(4-(cyclopropylsulfonyl)-1H-pyrazolo[3,4-b]pyridin-1-yl)-N-(1-methyl-1H-pyrazol-3-yl)-3-(tetrahydro-2H-pyran-4-yl)propanamide], for which the EC50 lay within 0.398 to 1.26 µM. Under setting [1], the Emax was 90 to 100%.
For `N#Cc1ccc(NC(=O)C(CC2CCOCC2)n2ncc3c(S(=O)(=O)C4CC4)cccc32)nc1` (centres unmarked) [Compound 135, N-(5-cyanopyridin-2-yl)-2-(4-(cyclopropylsulfonyl)-1H-indazol-1-yl)-3-(tetrahydro-2H-pyran-4-yl)propanamide], the EC50 was in the range of 0.398 to 1.26 µM. Further, the Emax under setting [1] is 106 to 110%.
For `O=C(Nc1cnccn1)[C@@H](CC1CCOCC1)n1ncc2c(S(=O)(=O)C3CC3)ccnc21` [Compound 161, (R)-2-(4-(cyclopropylsulfonyl)-1H-pyrazolo[3,4-b]pyridin-1-yl)-N-(pyrazin-2-yl)-3-(tetrahydro-2H-pyran-4-yl)propanamide] the same measures were ≥ 15.8 µM and ≤ 90%.
With `CCn1ccc(NC(=O)C(CC2CCOCC2)n2ncc3c(S(=O)(=O)C4CC4)c(F)ccc32)n1` (centres unmarked) [Compound 155, 2-(4-(cyclopropylsulfonyl)-5-fluoro-1H-indazol-1-yl)-N-(1-ethyl-1H-pyrazol-3-yl)-3-(tetrahydro-2H-pyran-4-yl)propanamide], the EC50 is ≤ 0.316 µM. Also, the Emax under setting [1] is 106 to 110%.
For `N#Cc1cccnc1NC(=O)C(CC1CCOCC1)n1ncc2c(S(=O)(=O)C3CC3)cccc21` (centres unmarked) [Compound 86, N-(3-cyanopyridin-2-yl)-2-(4-(cyclopropylsulfonyl)-1H-indazol-1-yl)-3-(tetrahydro-2H-pyran-4-yl)propanamide] the same measures were ≥ 15.8 µM and ≤ 90%.
For `O=C(Nc1ncc(Cl)s1)C(CC1CCCC1)n1cc(S(=O)(=O)C2CC2)cn1` (centres unmarked) [Compound 33, N-(5-chlorothiazol-2-yl)-3-cyclopentyl-2-(4-(cyclopropylsulfonyl)-1H-pyrazol-1-yl)propanamide] the same measures were 1.58 to 3.16 µM and ≥ 111%.
Taken in the same sequence, the figures for `O=C(Nc1cnccn1)[C@H](CC1CCOCC1)n1ncc2c(S(=O)(=O)C3CC3)ccnc21` [Compound 162, (S)-2-(4-(cyclopropylsulfonyl)-1H-pyrazolo[3,4-b]pyridin-1-yl)-N-(pyrazin-2-yl)-3-(tetrahydro-2H-pyran-4-yl)propanamide] were 1.58 to 3.16 µM and 106 to 110%.
Take `O=C(Nc1ncc(Cl)s1)[C@H](CC1CCOCC1)n1cc(S(=O)(=O)C2CC2)cn1` [Compound 42, (S)-N-(5-chlorothiazol-2-yl)-2-(4-(cyclopropylsulfonyl)-1H-pyrazol-1-yl)-3-(tetrahydro-2H-pyran-4-yl)propanamide]: the EC50 was in the range of 1.58 to 3.16 µM. Also, under setting [1], the Emax was ≥ 111%.
For `COc1ccc2nc(NC(=O)C(CC3CCOCC3)n3cc(S(=O)(=O)c4ccc(Cl)cc4)cn3)sc2n1` (centres unmarked) [Compound 30, 2-(4-(4-chlorophenylsulfonyl)-1H-pyrazol-1-yl)-N-(5-methoxythiazolo[5,4-b]pyridin-2-yl)-3-(tetrahydro-2H-pyran-4-yl)propanamide] the same measures were 3.98 to 12.6 µM and ≤ 90%.
Taken in the same sequence, the figures for `O=C(Nc1cnccn1)C(CC1CCOCC1)n1ncc2c(S(=O)(=O)C3CC3)cc(F)cc21` (centres unmarked) [Compound 103, 2-(4-(cyclopropylsulfonyl)-6-fluoro-1H-indazol-1-yl)-N-(pyrazin-2-yl)-3-(tetrahydro-2H-pyran-4-yl)propanamide] were 1.58 to 3.16 µM and 101 to 105%.
`O=C(Nc1ncc(F)s1)[C@H](CC1CCOCC1)n1ncc2c(S(=O)(=O)C3CC3)cc(Cl)cc21` [Compound 141, (S)-2-(6-chloro-4-(cyclopropylsulfonyl)-1H-indazol-1-yl)-N-(5-fluorothiazol-2-yl)-3-(tetrahydro-2H-pyran-4-yl)propanamide]: the EC50 was ≤ 0.316 µM. Further, under setting [1], the Emax is 90 to 100%.
